In assay [1] the test system is Endothelial cell. Kind of assay: Prevention of FGF2 deprivation-induced reduction of vascular endothelial cell viability after 24 hrs by MTT assay. The assay is classed as functional, cell-based. To be noted: Homo sapiens.
The nature of assay [2]: Inhibition of FGF2 deprivation-induced vascular endothelial cell apoptosis assessed as apoptotic cell proportion at 40 ug/ml after 24 hrs by TUNEL assay. The assay is classed as functional, Homo sapiens. The arrangement: scale not given: the % may be the effect or the level left.
Assay [3] deals with Endothelial cell. Kind of assay: Prevention of serum deprivation-induced reduction of vascular endothelial cell viability after 48 hrs by MTT assay. Type of assay: functional, cell-based. The following applies: Homo sapiens. In general terms: Tetrazolium assays rely on reduction of a dye to a coloured formazan, in cell work by metabolically active cells.
The test system of assay [4] is Endothelial cell. Kind of assay: Prevention of FGF2 deprivation-induced reduction of vascular endothelial cell viability after 48 hrs by MTT assay. To be noted: Homo sapiens. Type of assay: functional, cell-based.
A short description of assay [5]: Inhibition of FGF2 deprivation-induced integrin beta-4 expression in vascular endothelial cells at 40 ug/ml after 24 hrs relative to control. Type of assay: functional, Homo sapiens, Endothelial cell.
The nature of assay [6]: Inhibition of serum deprivation-induced integrin beta-4 expression in vascular endothelial cells at 40 ug/ml after 24 hrs relative to control. Type of assay: functional, Homo sapiens, Endothelial cell.
Assay [7] in a line: Inhibition of FGF2 deprivation-induced ROS level in vascular endothelial cells at 30 ug/ml after 24 hrs relative to control. Type of assay: functional, Homo sapiens, Endothelial cell.
Assay [8] is described as follows: Inhibition of serum deprivation-induced ROS level in vascular endothelial cells at 30 ug/ml after 24 hrs relative to control. Type of assay: functional, Homo sapiens, Endothelial cell.
Assay [9] has as its system Endothelial cell. Kind of assay: Prevention of serum deprivation-induced reduction of vascular endothelial cell viability after 24 hrs by MTT assay. Type of assay: functional, cell-based. The following applies: Homo sapiens.
Assay [10] is described as follows: Inhibition of serum deprivation-induced vascular endothelial cell apoptosis assessed as apoptotic cell proportion at 40 ug/ml after 24 hrs by TUNEL assay. Type of assay: functional, Homo sapiens. The arrangement: scale not given: the % may be the effect or the level left.
Assay [11] has as its system Endothelial cell. Kind of assay: Inhibition of DNA fragmentation in vascular endothelial cells at 40 ug/ml after 24 hrs. The assay is classed as functional, cell-based. The following applies: Homo sapiens.

Active and inactive are the calls of the source. The rule behind the calls is not given here.

`O=C1OC(COc2ccccc2[N+](=O)[O-])CC1Cc1ccccc1` (stereo unspecified): the Activity result was “Dose-dependent effect” in assay [1]; 9.89% in assay [2]; “Dose-dependent effect” in [3]; “Dose-dependent effect” in assay [4]; 33.8 in assay [5]; 33.8 in [6]. Also, the Activity is 7.95 in [7], 7.95 in assay [8], “Dose-dependent effect” in [9] and 9.89% in assay [10]. For the same compound, the outcome in [11] was Active.

Values taken from ChEMBL document CHEMBL1138394, “A novel butyrolactone derivative inhibited apoptosis and depressed integrin beta4 expression in vascular endothelial cells” (2007).
